Results as given in PMC10104807, “Modulation of tau tubulin kinases (TTBK1 and TTBK2) impacts ciliogenesis” (Scientific Reports, 2023).

What was measured:
Assay in all cases: DiscoverX scanMAX binding assay
PIP5K1C = target: T1, PIP5K1C (Homo sapiens, UniProt O60331); conditions: 1 μM
T1 construct: purchased Eurofins (radiometric) / Eurofins DiscoverX scanMAX / Reaction Biology / SignalChem
Source text: (§1) This panel includes 403 wild-type (WT) human kinases but not TTBK1/2. […] Substantial overlap between the MRC and DiscoverX scanMAX kinase panels allows the comparison of results for the same kinases in two different assay formats (enzymatic versus binding, respectively) at the same concentration. Selectivity results are included in two columns within Table 1. […] The rightmost column converts this selectivity score into the number of kinases with a PoC < 10 in the scanMAX panel.
(§2) The Eurofins DiscoverX Corporation scanMAX assay platform was employed to assess the selectivity of specific analogs at a single concentration (1 µM). As described previously, this assay platform profiles a compound against 403 wild-type human kinases and delivers percent of control (PoC) values. These percent of control values are included in Table 1 and corresponding kinome tree diagrams as well as tables for each analog included in Fig. S1.

YSK4 = target: T2, YSK4 (Homo sapiens, UniProt Q56UN5); conditions: 1 μM
T2 construct: purchased Eurofins (radiometric) / Eurofins DiscoverX scanMAX / Reaction Biology / SignalChem
T2 sequence (Q56UN5 1-1328): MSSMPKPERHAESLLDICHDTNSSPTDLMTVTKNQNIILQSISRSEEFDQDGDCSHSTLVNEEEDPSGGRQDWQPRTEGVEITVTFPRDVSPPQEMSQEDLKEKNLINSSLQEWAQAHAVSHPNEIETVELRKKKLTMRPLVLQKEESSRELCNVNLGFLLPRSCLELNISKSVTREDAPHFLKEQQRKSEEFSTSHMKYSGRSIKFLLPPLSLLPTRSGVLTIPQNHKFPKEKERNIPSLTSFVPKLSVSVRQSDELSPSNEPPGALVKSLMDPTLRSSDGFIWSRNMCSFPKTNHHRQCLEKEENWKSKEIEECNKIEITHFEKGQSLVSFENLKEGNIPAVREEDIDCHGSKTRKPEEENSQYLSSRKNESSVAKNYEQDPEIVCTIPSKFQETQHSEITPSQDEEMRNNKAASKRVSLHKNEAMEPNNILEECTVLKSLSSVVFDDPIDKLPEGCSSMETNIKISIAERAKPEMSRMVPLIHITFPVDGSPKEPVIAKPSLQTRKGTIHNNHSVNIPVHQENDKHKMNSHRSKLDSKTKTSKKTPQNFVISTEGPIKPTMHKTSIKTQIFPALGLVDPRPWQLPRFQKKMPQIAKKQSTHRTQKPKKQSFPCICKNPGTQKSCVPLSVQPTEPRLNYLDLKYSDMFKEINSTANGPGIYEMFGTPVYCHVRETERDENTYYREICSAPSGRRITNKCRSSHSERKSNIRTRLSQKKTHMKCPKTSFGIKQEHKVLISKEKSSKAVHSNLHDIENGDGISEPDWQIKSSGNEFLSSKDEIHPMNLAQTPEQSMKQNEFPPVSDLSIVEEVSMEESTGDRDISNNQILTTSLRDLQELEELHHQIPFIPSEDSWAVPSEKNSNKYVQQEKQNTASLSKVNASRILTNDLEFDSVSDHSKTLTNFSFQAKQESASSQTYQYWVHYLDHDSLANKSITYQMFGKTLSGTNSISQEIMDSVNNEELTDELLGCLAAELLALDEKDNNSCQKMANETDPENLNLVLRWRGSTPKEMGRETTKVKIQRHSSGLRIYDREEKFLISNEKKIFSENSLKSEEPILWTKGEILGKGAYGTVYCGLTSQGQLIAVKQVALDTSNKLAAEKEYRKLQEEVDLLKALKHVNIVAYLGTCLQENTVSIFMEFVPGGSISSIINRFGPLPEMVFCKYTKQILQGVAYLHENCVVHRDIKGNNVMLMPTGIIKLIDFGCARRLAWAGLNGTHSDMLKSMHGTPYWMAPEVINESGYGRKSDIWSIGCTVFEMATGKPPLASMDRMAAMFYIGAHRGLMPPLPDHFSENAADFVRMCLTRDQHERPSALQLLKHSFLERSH
Source text: as §1, §2

MAP4K2 = target: T3, MAP4K2 (Homo sapiens, UniProt Q12851); conditions: for MAP4K2 % control at 1000nM: 1 μM
T3 construct: purchased Eurofins (radiometric) / Eurofins DiscoverX scanMAX / Reaction Biology / SignalChem
T3 sequence (Q12851 1-820): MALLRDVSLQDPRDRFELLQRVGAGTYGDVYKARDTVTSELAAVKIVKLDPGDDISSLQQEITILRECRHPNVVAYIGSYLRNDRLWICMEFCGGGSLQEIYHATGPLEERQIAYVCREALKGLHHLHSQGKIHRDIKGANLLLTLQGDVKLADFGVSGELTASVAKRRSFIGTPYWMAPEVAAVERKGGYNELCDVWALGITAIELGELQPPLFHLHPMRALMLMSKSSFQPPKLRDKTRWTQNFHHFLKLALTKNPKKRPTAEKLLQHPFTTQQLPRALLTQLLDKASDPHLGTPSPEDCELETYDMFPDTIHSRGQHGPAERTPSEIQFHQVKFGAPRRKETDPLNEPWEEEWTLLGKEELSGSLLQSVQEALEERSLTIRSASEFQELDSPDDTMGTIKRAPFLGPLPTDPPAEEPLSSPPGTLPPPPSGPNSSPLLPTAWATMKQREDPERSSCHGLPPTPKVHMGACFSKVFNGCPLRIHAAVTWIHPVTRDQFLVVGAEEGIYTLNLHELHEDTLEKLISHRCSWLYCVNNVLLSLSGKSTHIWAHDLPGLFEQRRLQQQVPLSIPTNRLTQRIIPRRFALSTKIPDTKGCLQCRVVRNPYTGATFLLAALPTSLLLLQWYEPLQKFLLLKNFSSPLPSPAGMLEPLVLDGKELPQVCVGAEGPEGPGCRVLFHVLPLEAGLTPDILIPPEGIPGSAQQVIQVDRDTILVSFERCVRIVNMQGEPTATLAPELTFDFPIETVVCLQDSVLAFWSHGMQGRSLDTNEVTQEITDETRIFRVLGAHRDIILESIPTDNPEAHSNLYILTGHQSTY
Source text: as §1, §2

T1 sequence (O60331 whole entry): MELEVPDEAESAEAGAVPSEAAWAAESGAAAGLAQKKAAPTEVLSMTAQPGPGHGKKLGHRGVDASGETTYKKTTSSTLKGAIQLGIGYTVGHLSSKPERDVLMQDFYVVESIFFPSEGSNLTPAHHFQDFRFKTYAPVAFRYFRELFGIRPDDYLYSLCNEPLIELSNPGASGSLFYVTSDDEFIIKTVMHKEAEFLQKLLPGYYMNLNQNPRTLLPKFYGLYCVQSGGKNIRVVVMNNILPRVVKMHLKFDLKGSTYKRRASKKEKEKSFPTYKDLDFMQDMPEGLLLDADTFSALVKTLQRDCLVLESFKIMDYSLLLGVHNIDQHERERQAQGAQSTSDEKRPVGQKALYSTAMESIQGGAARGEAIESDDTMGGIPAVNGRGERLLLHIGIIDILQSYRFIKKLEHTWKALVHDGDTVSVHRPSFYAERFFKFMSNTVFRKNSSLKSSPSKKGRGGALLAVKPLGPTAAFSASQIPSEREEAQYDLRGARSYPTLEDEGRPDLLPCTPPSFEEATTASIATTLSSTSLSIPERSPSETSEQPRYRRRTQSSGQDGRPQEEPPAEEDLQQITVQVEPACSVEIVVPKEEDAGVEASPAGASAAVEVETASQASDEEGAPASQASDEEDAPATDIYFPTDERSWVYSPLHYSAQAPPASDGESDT

Structure (SMILES): CC(C)(O)C#Cc1ccc2[nH]c3c(c2c1)-c1nc(N)ncc1CC3 [Compound 1]
- PIP5K1C % control at 1000nM / DiscoverX PoC value (PIP5K1C): 0.5 % control
- YSK4 % control at 1000nM / DiscoverX PoC value (YSK4): 0 % control
- MAP4K2 % control at 1000nM (MAP4K2): 2 % control

Structure (SMILES): CC(C)(O)C#Cc1ccc2[nH]cc(-c3ccnc(N)n3)c2c1 [Compound 3]
- PIP5K1C % control at 1000nM / DiscoverX PoC value (PIP5K1C): 0.4 % control
- YSK4 % control at 1000nM / DiscoverX PoC value (YSK4): 0 % control
- MAP4K2 % control at 1000nM (MAP4K2): 1.6 % control

Structure (SMILES): CC(C)(O)C#Cc1ccc2[nH]c3c(c2c1)-c1nc(N)ncc1CCC3 [AMG28, reference compound]
- PIP5K1C % control at 1000nM / DiscoverX PoC value (PIP5K1C): 3.1 % control
- YSK4 % control at 1000nM / DiscoverX PoC value (YSK4): 0 % control
- percent of control (binding) at 1 µM (MAP4K2; read-out: MAP4K2 % control at 1000nM): 1.3%
